Measurements: patent US20130303737A1, “TARGETED SCHIFF BASE COMPLEXES” (NORTHWESTERN UNIVERSITY, priority 2009, published 2013)

Assays:
[1] = target: T1, Slug (Xenopus laevis, UniProt Q91924); experiment: EMSA, inhibition of Slug DNA-binding in embryo lysates; format: biochemical; details: relative to Co(III)-Ebox at 1 μM
T1 construct: 5x myc; expressed in transfected cells; host or cells: Xenopus laevis embryos injected with in vitro transcribed mRNA; whole embryo lysate, stage 8 / blastula
T1 sequence (Q91924 1-266): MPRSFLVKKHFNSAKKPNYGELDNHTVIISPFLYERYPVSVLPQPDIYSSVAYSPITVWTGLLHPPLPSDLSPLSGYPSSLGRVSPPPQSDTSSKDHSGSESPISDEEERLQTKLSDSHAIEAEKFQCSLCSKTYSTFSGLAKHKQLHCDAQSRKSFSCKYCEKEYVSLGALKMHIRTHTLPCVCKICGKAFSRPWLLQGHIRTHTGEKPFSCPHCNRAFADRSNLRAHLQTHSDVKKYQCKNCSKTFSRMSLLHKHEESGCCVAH
Description: (§1) (A) Lysates of blastula stage embryos (lane 1) or embryos with overexpressed Slug protein (lanes 2-6) were incubated with increasing concentrations of Co(III)-Ebox of 0, 0.01, 0.1 and 1 μM for 15 min prior to challenge with a ^32P-labeled Ebox containing Slug DNA probe for 30 min. (B) Lysates of blastula stage embryos injected with Slug, Snail or Sip1 mRNA (lanes 1-9) or Slug, p105, MitF and Lef-1 mRNA (lanes 10-21) were incubated with 0 or 1 μM Co(III)-Ebox for 15 min prior to challenge with ^32P-labeled Slug probe for 30 min and analyzed by EMSA on a native gel. […] Samples were analyzed by EMSA on a native TBE/acrylamide gel.
(§2) Lysates of blastula stage embryos injected with Slug mRNA were incubated with increasing concentrations of Co(1II)-Schiff base of 0, 1.5, 5, 15, 50, 150 and 500 μM (lanes 2-8) for 15 min, then incubated with ^32P-labeled Slug probe for 30 min and visualized by EMSA. Lysates of embryos injected with Slug (lanes 10 and 11), p105 (lanes 13 and 14), MitF (lanes 16 and 17) or Lef-1 (lanes 19 and 20) mRNA were incubated with 0 or 150 μM Co(1II)-Schiff base for 15 min and labeled with ^32P-labeled Slug probe for 30 min. Uninjected embryos are presented in lanes 1, 9, 12, I5 and 18. Samples were separated by EMSA. […]

[2] = target: T2, p105 (Homo sapiens, UniProt P19838); experiment: EMSA, inhibition of p105 DNA-binding in embryo lysates; format: biochemical, Xenopus laevis; details: high concentrations (150 μM per FIG. 4 legend)
T2 construct: 5x myc; expressed in transfected cells; host or cells: Xenopus laevis embryos injected with in vitro transcribed mRNA; whole embryo lysate
T2 sequence (P19838 1-968): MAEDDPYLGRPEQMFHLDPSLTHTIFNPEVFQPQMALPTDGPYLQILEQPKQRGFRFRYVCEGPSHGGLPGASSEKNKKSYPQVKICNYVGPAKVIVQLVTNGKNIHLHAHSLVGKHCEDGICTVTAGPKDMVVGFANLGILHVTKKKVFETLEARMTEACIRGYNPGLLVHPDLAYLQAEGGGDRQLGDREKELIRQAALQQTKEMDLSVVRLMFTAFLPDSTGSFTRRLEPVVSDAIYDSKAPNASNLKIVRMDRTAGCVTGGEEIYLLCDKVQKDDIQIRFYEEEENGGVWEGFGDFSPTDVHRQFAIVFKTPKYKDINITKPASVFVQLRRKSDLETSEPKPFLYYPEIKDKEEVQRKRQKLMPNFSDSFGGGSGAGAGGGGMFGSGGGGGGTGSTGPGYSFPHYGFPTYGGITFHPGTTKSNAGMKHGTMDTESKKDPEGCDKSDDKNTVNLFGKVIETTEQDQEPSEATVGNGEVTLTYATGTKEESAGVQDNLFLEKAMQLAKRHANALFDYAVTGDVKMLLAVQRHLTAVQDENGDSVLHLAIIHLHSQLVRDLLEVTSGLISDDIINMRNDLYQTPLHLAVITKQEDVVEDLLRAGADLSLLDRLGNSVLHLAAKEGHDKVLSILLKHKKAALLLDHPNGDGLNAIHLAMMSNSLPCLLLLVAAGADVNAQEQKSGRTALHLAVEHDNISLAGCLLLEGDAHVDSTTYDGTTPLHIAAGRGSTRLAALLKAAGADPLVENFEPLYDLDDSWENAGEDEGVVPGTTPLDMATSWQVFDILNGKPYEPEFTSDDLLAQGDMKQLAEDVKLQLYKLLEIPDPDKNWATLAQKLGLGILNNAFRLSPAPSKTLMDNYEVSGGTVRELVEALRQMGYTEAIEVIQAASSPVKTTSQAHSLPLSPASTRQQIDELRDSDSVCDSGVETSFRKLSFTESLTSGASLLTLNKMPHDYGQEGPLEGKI
Description: as §1, §2

[3] = target: T3, Lef-1 (Homo sapiens, UniProt Q9UJU2); experiment: EMSA, inhibition of Lef-1 DNA-binding in embryo lysates; format: biochemical, Xenopus laevis; details: high concentrations (150 μM per FIG. 4 legend)
T3 construct: 5x myc; expressed in transfected cells; host or cells: Xenopus laevis embryos injected with in vitro transcribed mRNA; whole embryo lysate
T3 sequence (Q9UJU2 whole entry, species assumed): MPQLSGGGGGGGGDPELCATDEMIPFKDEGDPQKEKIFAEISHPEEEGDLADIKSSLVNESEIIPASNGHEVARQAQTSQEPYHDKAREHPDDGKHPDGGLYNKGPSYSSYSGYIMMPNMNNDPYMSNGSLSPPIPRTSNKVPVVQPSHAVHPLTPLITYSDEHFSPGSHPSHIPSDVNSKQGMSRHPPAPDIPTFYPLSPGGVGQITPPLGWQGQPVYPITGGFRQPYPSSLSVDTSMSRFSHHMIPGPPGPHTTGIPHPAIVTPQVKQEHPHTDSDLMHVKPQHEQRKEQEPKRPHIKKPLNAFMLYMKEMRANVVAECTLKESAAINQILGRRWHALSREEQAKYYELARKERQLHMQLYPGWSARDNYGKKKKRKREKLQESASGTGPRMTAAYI
Description: as §1, §2

[4] = target: T1, Slug; experiment: In vivo assay: embryos injected with agent and Slug RNA, EMSA at blastula stage; details: 10 fold excess (10 μM) injected
Description: Pigmented and albino eggs were obtained and fertilized using standard protocol (Bellmeyer et al. (2003) Dev Cell 4(6):827-839, herein incorporated by reference in its entirety). All embryos are staged using the Niewenkoop-Faber method. Embryos were injected into one-cell at stage 1 in 0.4× modified ringer's (MR) solution with 3% Ficoll then transferred to 0.1×MR until harvesting. mRNA was transcribed in vitro using the SP6 Message Machine Kit (Ambion, Austin, Tex.). Concentrations of mRNA injected into one cell at the 2-cell stage range from 5-50 pg. XSip1 in the vector pCS2+ was obtained from A. Eisaki (Eisaki (2000) Biochem Biophys Res Commun 271(1):151-157, herein incorporated by reference in its entirety). cDNA was generated using PCR amplification and a high fidelity polymerase (Pfu; Roche, Indianapolis Ind.). cDNAs were cloned into a pCS2 variant that adds 5 myc tags to either the N- or C-terminus. All constructs were confirmed by sequencing using a ABI 3730 high-throughput DNA Sequencer.
For in vitro assays, whole embryo lysates were prepared by lysing 5 stage 8 embryos in 100 μL of lysis buffer (1×PBS, 1% NP-40 and Complete protease inhibitor cocktail tablets; Roche, Indianapolis, Ind.). […]

[5] = system: Snail; experiment: E-cadherin promoter firefly luciferase reporter (Snail transcriptional repression); format: cell-based; details: MDA-MB-231 cells, up to 250 nM
Description: MDA-MB-231 metastatic breast cancer cells express Snail1 in the nucleus. A firefly luciferase plasmid with the E-cadherin promoter region was added upstream of the transcriptional start site Snail (SEE FIG. 7A). Binding of Snail to the E-boxes thereby repress luciferase transcription and therefore luciferase activity.

[Co(III)(heptanoic acido)(acacen)(NH3)2]Cl [Co(III)-Schiff base]
Excess required to achieve inhibition of Slug comparable to Co(III)-Ebox at 1 μM [1]: 150 fold | Inhibition of p105 DNA-binding [2]: inhibited | Inhibition of Lef-1 DNA-binding [3]: inhibited | Inhibition of Slug function (DNA-binding) after injection in vivo [4]: not inhibited | Luciferase activity of E-cadherin promoter construct (Snail transcriptional activity) [5]: did not affect
